Results on seven compounds are retold here after patent publication US20240383915A1, “OXAZEPINE COMPOUNDS AND USES THEREOF IN THE TREATMENT OF CANCER” (Genentech, Inc., priority 2021, published 2024).

In assay [1] the target is KRas(G12V) (Homo sapiens (Human), UniProt P01116, G12V). As to the kind of experiment: KRas(G12V) GDP HTRF (BODIPY-GDP exchange TR-FRET). In kind it is biochemical.
The target in assay [2] is KRas (Homo sapiens (Human), UniProt P01116). The assay is described as follows: KRas GDP HTRF (BODIPY-GDP exchange TR-FRET). In kind it is biochemical. How it is done: KRAS Biochemical Assay—BODIPY-GDP Exchange TR-FRET. Biochemical compound potencies were assessed by evaluating inhibition of SOS1-mediated nucleotide exchange in KRAS G12D. The SOS1-promoted exchange of fluorescently-labeled GDP (BODIPY-GDP) was monitored by time-resolved fluorescence resonance energy transfer (TR-FRET). Compounds solubilized in DMSO were dispensed as concentration series into 384-well white assay plates. […] The reaction was initiated with the addition of 5 μL of 3 nM recombinant human SOS1 and 300 nM BODIPY-GDP in assay buffer. After a 60-minute incubation, the fluorescence was measured with excitation at 337 nm and emission at 490 and 520 nm. The TR-FRET ratio was determined as the fluorescence at 520 nm divided by the fluorescence at 490 nm multiplied by 10,000. […] The normalized TR-FRET results were plotted against compound concentration, and the data fit to a 4-parameter Hill equation to determine the IC50 values.
Sequence of KRas (P01116-2 other isoform, or with tags, fused parts or gaps): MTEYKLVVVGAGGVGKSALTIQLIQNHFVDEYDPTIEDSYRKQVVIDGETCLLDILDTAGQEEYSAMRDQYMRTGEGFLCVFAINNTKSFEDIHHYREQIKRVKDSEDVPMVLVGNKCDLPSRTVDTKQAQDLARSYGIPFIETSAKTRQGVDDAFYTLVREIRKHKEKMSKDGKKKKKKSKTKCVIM

In general, IC50 refers to the concentration needed to halve the response being measured. Low values mean greater potency, high ones weaker potency.

Sequence of KRas(G12V) (P01116-2 other isoform, or with tags, fused parts or gaps G12V): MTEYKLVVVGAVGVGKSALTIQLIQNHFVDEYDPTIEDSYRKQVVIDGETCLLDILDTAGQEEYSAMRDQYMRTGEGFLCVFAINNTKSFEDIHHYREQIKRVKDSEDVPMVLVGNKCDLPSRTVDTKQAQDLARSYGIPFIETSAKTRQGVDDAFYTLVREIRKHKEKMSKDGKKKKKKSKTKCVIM

Regarding `Cc1cc(N)nc(-c2c(Cl)c3c4c(ncnc4c2F)N([C@H](C)c2cccnc2N)CCO3)c1C(F)(F)F` (atropisomer, axis not shown) [Example 53b, 6-((S)-4-((R)-1-(2-aminopyridin-3-yl)ethyl)-8-chloro-10-fluoro-5,6-dihydro-4H-[1,4]oxazepino[5,6,7-de]quinazolin-9-yl)-4-methyl-5-(trifluoromethyl)pyridin-2-amine], the IC50 in assay [1] amounted to 600 nM; in assay [2] it was 2900 nM.
Turning to `COCCN1CCC(Oc2nc3c4c(c(Cl)c(-c5nc(N)cc(C)c5C(F)(F)F)c(F)c4n2)OCCN3[C@H](C)c2cccnc2N)CC1` (atropisomer, axis not shown) [Example 126, 6-((R)-4-((R)-1-(2-aminopyridin-3-yl)ethyl)-8-chloro-10-fluoro-2-((1-(2-methoxyethyl)piperidin-4-yl)oxy)-5,6-dihydro-4H-[1,4]oxazepino[5,6,7-de]quinazolin-9-yl)-4-methyl-5-(trifluoromethyl)pyridin-2-amine], the IC50 is 0.34 nM in assay [1] and 2.87 nM in assay [2].
Regarding `CSc1cncc(CN2CCOc3c(Cl)c(-c4nc(N)cc(C)c4C(F)(F)F)cc4ncnc2c34)c1` [Example 29, 6-(8-chloro-4-((5-(methylthio)pyridin-3-yl)methyl)-5,6-dihydro-4H-[1,4]oxazepino[5,6,7-de]quinazolin-9-yl)-4-methyl-5-(trifluoromethyl)pyridin-2-amine], the 50% inhibitory concentration (IC50) in assay [1] and in assay [2] was 7400 nM in each case.
As for `Cc1cc(N)nc(-c2c(Cl)c3c4c(nc(OC[C@@H]5CC[C@H]6COCCN65)nc4c2F)N([C@H](C)c2ccnnc2N)CCO3)c1C(F)(F)F` (atropisomer, axis not shown; (aS)) [Example 175, 4-((R)-1-((R)-9-(6-amino-4-methyl-3-(trifluoromethyl)pyridin-2-yl)-8-chloro-10-fluoro-2-(((6S,8aS)-hexahydro-1H-pyrrolo[2,1-c][1,4]oxazin-6-yl)methoxy)-5,6-dihydro-4H-[1,4]oxazepino[5,6,7-de]quinazolin-4-yl)ethyl)pyridazin-3-amine], the IC50 in assay [1] came out at 0.08 nM; in assay [2], 0.1 nM.
For `Cc1cc(N)nc(-c2c(Cl)c3c4c(nc(OC(C)(C)[C@@H]5CC(F)(F)CN5C)nc4c2F)N([C@H](C)c2cccnc2N)CCO3)c1C(F)(F)F` (atropisomer, axis not shown) [Example 72, 6-((R)-4-((R)-1-(2-aminopyridin-3-yl)ethyl)-8-chloro-2-((2-((S)-4,4-difluoro-1-methylpyrrolidin-2-yl)propan-2-yl)oxy)-10-fluoro-5,6-dihydro-4H-[1,4]oxazepino[5,6,7-de]quinazolin-9-yl)-4-methyl-5-(trifluoromethyl)pyridin-2-amine], the values for the IC50 in assay [1] and in assay [2] were 12 nM and 143 nM, respectively.
Taken in the same sequence, the figures for `Cc1cc(N)nc(-c2c(Cl)c3c4c(nc(OC[C@@H]5C[C@@]6(CN5C)CC6(F)F)nc4c2F)N([C@H](C)c2nccnc2N)CCO3)c1C(F)(F)F` (atropisomer, axis not shown) [Example 171b, 3-((R)-1-((S)-9-(6-amino-4-methyl-3-(trifluoromethyl)pyridin-2-yl)-8-chloro-2-(((3S,6S)-1,1-difluoro-5-methyl-5-azaspiro[2.4]heptan-6-yl)methoxy)-10-fluoro-5,6-dihydro-4H-[1,4]oxazepino[5,6,7-de]quinazolin-4-yl)ethyl)pyrazin-2-amine] were 900 nM and 2090 nM.
Turning to `Cc1cc(N)nc(-c2c(Cl)c3c4c(nc(OC[C@@H](C)N5CCOCC5)nc4c2F)N([C@H](C)c2cccnc2N)CCO3)c1C(F)(F)F` (atropisomer, axis not shown) [Example 95b, 6-((R)-4-((R)-1-(2-aminopyridin-3-yl)ethyl)-8-chloro-10-fluoro-2-((R)-2-morpholinopropoxy)-5,6-dihydro-4H-[1,4]oxazepino[5,6,7-de]quinazolin-9-yl)-4-methyl-5-(trifluoromethyl)pyridin-2-amine], the IC50 in assay [1] was found to be 0.12 nM; in assay [2], 0.484 nM.
